Source: patent publication US6352989B1, “Nitrogenous heterocyclic derivatives and medicine thereof” (Eisai Co., Ltd., priority 1998, dated 2002)
pIC50: −log10 of the molar value.

How the values were obtained:
[1] = biological target: PDE4D (Homo sapiens, UniProt Q08499); test: Inhibitory action on PDE4 (homogenate of BHK cells expressing cloned human PDE4D, [3H]-cAMP hydrolysis); assay type: biochemical; details: average in triplicate measurements; 1 μM [3H]-cAMP substrate; read-out: PDE4 Inhibition IC50
Sequence of PDE4D (Q08499 303-809 limits assumed): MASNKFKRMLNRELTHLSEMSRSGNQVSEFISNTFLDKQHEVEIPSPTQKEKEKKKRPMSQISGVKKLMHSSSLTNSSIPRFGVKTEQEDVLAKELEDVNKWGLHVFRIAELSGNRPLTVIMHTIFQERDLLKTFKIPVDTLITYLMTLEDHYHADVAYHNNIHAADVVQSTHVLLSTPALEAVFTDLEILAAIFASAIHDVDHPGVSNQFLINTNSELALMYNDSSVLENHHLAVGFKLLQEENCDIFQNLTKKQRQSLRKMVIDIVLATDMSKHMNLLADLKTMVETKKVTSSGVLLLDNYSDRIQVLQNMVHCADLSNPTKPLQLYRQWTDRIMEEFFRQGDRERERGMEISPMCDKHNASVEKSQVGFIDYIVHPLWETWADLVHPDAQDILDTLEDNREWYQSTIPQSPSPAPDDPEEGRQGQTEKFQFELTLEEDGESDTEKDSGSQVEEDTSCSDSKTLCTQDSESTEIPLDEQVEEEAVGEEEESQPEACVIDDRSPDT
Experimental: Inhibitory Action on PDE4: PDE4D was cloned from human placental mRNA by PCR techniques, and cDNA after an alternative spliced site (Mol. Cell. Biol., 13, 6558, 1993) was expressed in BHK cells. Two clones of BHK cells expressing PDE4 activity which was 100 or more times as high as endogenous PDE4 activity were obtained, and one of the clones was cultured in a large amount, and its homogenate was used as an enzyme source of PDE4.
50 mM Tris-HCl (pH 8.0), 0.1 mM EGTA, 0.1 mM MgCl2, 1 μM [^3H]-cGMP (100,000 dpm/tube) or 1 μM [^3H]-cAMP (100,000 dpm/tube) was added to the above homogenate, and 0.2 ml of the mixture was incubated at 30° C. for 10 to 20 minutes in the presence or absence of a test compound. The enzyme reaction was stopped by incubating the mixture at 95° C. for 1.5 minutes, and after cooling on ice, 50 μl nucleotidase (10 units/ml) was added thereto and incubated at 30° C. for 10 minutes. 550 μl of AG1-X2 resin slurry (H2O:resin=2:1) was added to the reaction mixture, then left at 4° C. for 10 minutes and centrifuged (10,000 rpm, 2.5 minutes, 4° C.), and 450 μl of the supernatant was measured for radioactivity.
The activity was compared in terms of IC50 (concentration of the compound at which 50% of the enzyme activity is inhibited) IC50 was determined by plotting of the concentration of cAMP as the substrate and the concentration of the compound on logarithmic graph paper. The results shown in Table 1 are the average in triplicate measurements. The test compound was first dissolved in DMSO and then diluted with the above-mentioned buffer for use.

Row | Compound | pIC50 [1] | melting point [°C]
1 | CNc1nc(-c2cccc(NC(=O)c3ccc(OC)c(OC4CCCC4)c3)c2)c2cc(OC)c(OC)cc2n1 [Example 17, 4-[3-(3-Cyclopentyloxy-4-methoxybenzoylamino)phenyl]-6,7-dimethoxy-2-methylaminoquinazoline] | 8.38 | 129 to 131
2 | CNc1nc(-c2cccc(NC(=O)c3ccc(O)cc3)c2)c2cc(OC)c(OC)cc2n1 [Example 21, 6,7-Dimethoxy-4-[3-(4-hydroxybenzoylamino)phenyl]-2-methylaminoquinazoline] | 8.66 | 178 to 180
3 | CNc1nc(-c2cccc(NC(=O)c3ccc(N(C)C)nc3)c2)c2cc(OC)c(OC)cc2n1 [Example 30, 6,7-Dimethoxy-4-[3-(6-dimethylaminonicotinoylamino)phenyl]-2-methylaminoquinazoline] | 8.59 | 149 to 151
4 | CNc1nc(-c2cccc(NC(=O)c3ccc(N4CCCC4)nc3)c2)c2cc(OC)c(OC)cc2n1 [Example 31, 6,7-Dimethoxy-2-methylamino-4-[3-(6-pyrrolidinonicotinoylamino)phenyl]quinazoline] | 8.60 | 239 to 241
5 | CNc1nc(-c2cccc(NC(=O)c3ccnc(N4CCCC4)c3)c2)c2cc(OC)c(OC)cc2n1 [Example 34] | 8.51 | 135 to 137
6 | CNc1nc(-c2cccc(N3Cc4ccccc4C3)c2)c2cc(OC)c(OC)cc2n1 [Example 44, 6,7-Dimethoxy-4-[3-(2-isoindolynyl)phenyl]-2-methylaminoquinazoline] | 8.60 | 194 to 196
7 | CNc1nc(-c2cccc(N3Cc4ccccc4C3=O)c2)c2cc(OC)c(OC)cc2n1 [Example 45, 6,7-Dimethoxy-4-[3-(1-oxo-2-isoindolynyl)phenyl]-2-methylaminoquinazoline] | 9.14 | 230 to 232
8 | CNc1nc(-c2cccc(-c3cncc4ccccc34)c2)c2cc(OC)c(OC)cc2n1 [Example 51, 6,7-Dimethoxy-2-methylamino-4-[3-(4-isoquinolyl)phenyl]quinazoline] | 8.49 | 181 to 183
9 | CNc1nc(-c2cccc(-c3ccc(SC)cc3)c2)c2cc(OC)c(OC)cc2n1 [Example 52, 6,7-Dimethoxy-2-methylamino-4-(4′-methylthio-3-biphenylyl)quinazoline] | 8.74 | 140 to 142
10 | CNc1nc(-c2cccc(-c3ccc([S+](C)[O-])cc3)c2)c2cc(OC)c(OC)cc2n1 (centres unmarked) [Example 53, 6,7-Dimethoxy-2-methylamino-4-(4′-methylsulfinyl-3-biphenylyl)quinazoline] | 9.20 | 153 to 155
11 | CNc1nc(-c2cccc(-c3cccc(SC)c3)c2)c2cc(OC)c(OC)cc2n1 [Example 54, 6,7-Dimethoxy-2-methylamino-4-(3′-methylthio-3-biphenylyl)quinazoline] | 8.77 | 195 to 197
12 | CNc1nc(-c2cccc(-c3cccc(-c4ccccc4)c3)c2)c2cc(OC)c(OC)cc2n1 [Example 56, 6,7-Dimethoxy-2-methylamino-4-(3′-phenyl-3-biphenylyl)quinazoline] | 8.92 | 193 to 195
13 | CNc1nc(-c2cccc(-c3cncc(SC)c3)c2)c2cc(OC)c(OC)cc2n1 [Example 58, 6,7-Dimethoxy-2-methylamino-4-[3-(5-methylthio-3-pyridyl)phenyl]quinazoline] | 8.55 | 184 to 186
14 | CCOc1cc2nc(NC)nc(-c3cccc(-c4cnc5ccccc5c4)c3)c2cc1OCC [Example 60, 6,7-Diethoxy-2-methylamino-4-[3-(3-quinolyl)phenyl]quinazoline] | 9.66 | 157 to 159
15 | CCOc1cc2nc(NC)nc(-c3cccc(-c4cncc(SC)c4)c3)c2cc1OCC [Example 61, 6,7-Diethoxy-2-methylamino-4-[3-(methylthio-3-pyridyl)phenyl]quinazoline] | 9.22 | 105 to 107
16 | CNc1nc(-c2cccc(-c3cncc(-c4ccccc4)c3)c2)c2cc(OC)c(OC)cc2n1 [Example 63, 6,7-Dimethoxy-2-methylamino-4-[3-(5-phenyl-3-pyridyl)phenyl]quinazoline] | 9.22 | 200 to 202

Row | Compound | pIC50 [1] | melting point [°C]
17 | CNc1nc(-c2cccc(-c3cnc4c(C)cccc4c3)c2)c2cc(OC)c(OC)cc2n1 [Example 64, 6,7-Dimethoxy-4-[3-(8-methyl-3-quinolyl)phenyl]-2-methylaminoquinazoline] | 9.72 | 188 to 190
18 | CNc1nc(-c2cccc(C#Cc3ccccc3)c2)c2cc(OC)c(OC)cc2n1 [Example 65, 6,7-Dimethoxy-2-methylamino-4-[3-(2-phenylethynyl)phenyl]quinazoline] | 8.60 | 102 to 104
19 | CNc1ccc(C#Cc2cccc(-c3nc(NC)nc4cc(OC)c(OC)cc34)c2)cn1 [Example 68, 6,7-Dimethoxy-2-methylamino-4-[3-[2-(6-methylamino-3-pyridyl)ethynyl]phenyl]quinazoline] |  | 136 to 138
20 | CNc1nc(-c2cccc(/C=C/c3ccccc3)c2)c2cc(OC)c(OC)cc2n1 [Example 69, 6,7-Dimethoxy-2-methylamino-4-[3-(2-phenylethenyl)phenyl]quinazoline] |  | 110 to 112
21 | CNc1nc(-c2cccc(C(=O)Nc3ccccc3)c2)c2cc(OC)c(OC)cc2n1 [Example 70, 6,7-Dimethoxy-2-methylamino-4-(3-phenylcarbamoylphenyl)quinazoline] |  | 242 to 244
22 | CNc1nc(-c2cccc(C(=O)Nc3cccnc3)c2)c2cc(OC)c(OC)cc2n1 [Example 71, 6,7-Dimethoxy-2-methylamino-4-[3-(3-pyridyl)carbamoylphenyl]quinazoline] |  | 238 to 240
23 | CNc1nc(-c2cccc(OCc3ccccc3)c2)c2cc(OC)c(OC)cc2n1 [Example 72, 4-(3-Benzyloxyphenyl)-6,7-dimethoxy-2-methylaminoquinazoline] |  | 116 to 118
24 | CNc1nc(-c2cccc(Oc3ccccc3)c2)c2cc(OC)c(OC)cc2n1 [Example 73, 6,7-Dimethoxy-2-methylamino-4-(3-phenoxylphenyl)quinazoline] |  | 157 to 159
25 | CNc1nc(-c2ccc(-c3ccccc3)s2)c2cc(OC)c(OC)cc2n1 [Example 74, 6,7-Dimethoxy-2-methylamino-4-(5-phenyl-2-thienyl)quinazoline] |  | 201 to 203
26 | CNc1nc(-c2cncc(-c3ccccc3)c2)c2cc(OC)c(OC)cc2n1 [Example 75, 6,7-Dimethoxy-2-methylamino-4-(5-phenyl-3-pyridyl)quinazoline] |  | 177 to 179
27 | CNc1nc(-c2cncc(Br)c2)c2cc(OC)c(OC)cc2n1 [Example 76, 4-(5-Bromo-3-pyridyl)-6,7-dimethoxy-2-methylaminoquinazoline] |  | 228 to 230
28 | CNc1nc(-c2cncc(-c3ccc(SC)cc3)c2)c2cc(OC)c(OC)cc2n1 [Example 77, 6,7-Dimethoxy-2-methylamino-4-[5-(4-methylthiophenyl)-3-pyridyl]quinazoline] |  | 170 to 172
29 | CNc1nc(-c2cncc(C#Cc3cccnc3)c2)c2cc(OC)c(OC)cc2n1 [Example 78, 6,7-Dimethoxy-2-methylamino-4-[5-[2-(3-pyridyl)ethynyl]-3-pyridyl]quinazoline] |  | 208 to 211
30 | CNc1ccc(C#Cc2cncc(-c3nc(NC)nc4cc(OC)c(OC)cc34)c2)cn1 [Example 79, 6,7-Dimethoxy-2-methylamino-4-[5-[2-(6-methylamino-3-pyridyl)ethynyl]-3-pyridyl]quinazoline] |  | 160 to 162
31 | CNc1nc(-c2cccc(NC(=O)c3ccccc3)c2)c2cc(OCc3ccccc3)c(OC)cc2n1 [Example 81, 4-(3-Benzoylaminophenyl)-6-benzyloxy-7-methoxy-2-methylaminoquinazoline] |  | 204 to 206
32 | CNc1nc(-c2cccc(NC(=O)c3ccccc3)c2)c2cc(O)c(OC)cc2n1 [Example 82, 4-(3-Benzoylaminophenyl)-6-hydroxy-7-methoxy-2-methylaminoquinazoline] |  | 145 to 147
